Reference: US10513521B2, “Compositions and methods for inhibiting BMP” (The Brigham and Women's Hospital, Inc., priority 2014, dated 2019)
Positions count from the first letter of the chain named. Read-outs that look alike come from different tables or passages of the source.

Tests used:
ALK2 [1] = molecular target: T1, ALK2 (Mus musculus, UniProt P37172); test: HTRF pSMAD1 cell-based ALK2 assay (C2C12 cells, BMP6 as agonist)
T1 construct: The C2C12 cell line was selected for the measurement of ALK2 activity using BMP6 as the agonist; host or cells: C2C12
T1 sequence (P37172 21-509): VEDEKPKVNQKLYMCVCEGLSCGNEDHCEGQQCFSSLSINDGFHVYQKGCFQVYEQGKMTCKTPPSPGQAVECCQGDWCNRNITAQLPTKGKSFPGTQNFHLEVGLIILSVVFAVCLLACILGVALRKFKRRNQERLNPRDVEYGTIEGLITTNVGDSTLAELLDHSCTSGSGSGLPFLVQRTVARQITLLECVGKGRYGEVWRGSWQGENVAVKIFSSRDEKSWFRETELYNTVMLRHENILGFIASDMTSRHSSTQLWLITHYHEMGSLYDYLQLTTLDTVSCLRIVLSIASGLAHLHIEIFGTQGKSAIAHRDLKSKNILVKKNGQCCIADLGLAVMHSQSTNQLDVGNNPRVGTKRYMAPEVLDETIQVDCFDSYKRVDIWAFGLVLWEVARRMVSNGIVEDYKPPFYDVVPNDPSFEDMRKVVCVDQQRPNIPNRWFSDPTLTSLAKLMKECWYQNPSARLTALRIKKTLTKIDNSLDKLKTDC
Method: 2. HTRF Cell-Based ALK1 and ALK2 Assays in 384-Well Plate Format We have developed a cell based ALK1 kinase assay and a cell-based ALK2 assay. The BAOEC cell line was employed for the measurement of ALK1 activity using BMP9 as the agonist. The C2C12 cell line was selected for the measurement of ALK2 activity using BMP6 as the agonist. The kinase specificity was defined by the specific cell line and agonist. The kinase activity was determined by the status of SMD 1/5/8 phosphorylation stimulated by the agonist.
HyClone Fetal Bovine Serum was obtained from GE healthcare life sciences (Logan, Utah). BMP6 and BMP9 were purchased from R&D System. […] The compound plates and the white solid MB assay plates were purchased from Greiner Bio-one (Monroe, N.C.).
HTRF optimization experiments were performed in 384 well plate format. […] Pre-starved cells were then plated in 384 well plate in the starvation medium (containing in 0.1% FBS). After 4 hours, compounds were added to the assay plate and incubated for 30 minutes. The assay plate was then added with BMP6 for C2C12 cells or BMP9 for BAOEC cells and incubated for 30 minutes.
HTRF assay was performed to measure the status of SMAD 1 phosphorylation after stimulated with the agonist (Table 3). This HTRF phospho SMAD1 cell assay was developed and optimized for the homogenous detection of phospho SMAD 1 levels in cells. […] The plate was incubated at room temperature for overnight.

ALK1 = ALK1 (Homo sapiens, UniProt P37023); test: TR-FRET enzymatic ALK kinase assay, ALK1
Method: (§1) Briefly, the ALKs enzymatic assay was initiated by dispense 2.5 μl enzyme in 1× kinase reaction buffer. The assay plate was then added with compounds followed by incubation at room temperature for 10 minutes. Then 2.5 μl/well substrate was added.

ALK2 [2] = molecular target: T2, ALK2 (Homo sapiens, UniProt Q04771); test: TR-FRET enzymatic ALK kinase assay, ALK2
T2 sequence (Q04771 21-509): T1 sequence (P37172 21-509) with V1M, Q10P, I121L, E162D, S310P
Method: as §1

ALK3 = ALK3 (Homo sapiens, UniProt P36894); test: TR-FRET enzymatic ALK kinase assay, ALK3
Method: as §1

ALK4 = molecular target: T3, ALK4 (Homo sapiens, UniProt P36896); test: TR-FRET enzymatic ALK kinase assay, ALK4
T3 sequence (P36896 24-505): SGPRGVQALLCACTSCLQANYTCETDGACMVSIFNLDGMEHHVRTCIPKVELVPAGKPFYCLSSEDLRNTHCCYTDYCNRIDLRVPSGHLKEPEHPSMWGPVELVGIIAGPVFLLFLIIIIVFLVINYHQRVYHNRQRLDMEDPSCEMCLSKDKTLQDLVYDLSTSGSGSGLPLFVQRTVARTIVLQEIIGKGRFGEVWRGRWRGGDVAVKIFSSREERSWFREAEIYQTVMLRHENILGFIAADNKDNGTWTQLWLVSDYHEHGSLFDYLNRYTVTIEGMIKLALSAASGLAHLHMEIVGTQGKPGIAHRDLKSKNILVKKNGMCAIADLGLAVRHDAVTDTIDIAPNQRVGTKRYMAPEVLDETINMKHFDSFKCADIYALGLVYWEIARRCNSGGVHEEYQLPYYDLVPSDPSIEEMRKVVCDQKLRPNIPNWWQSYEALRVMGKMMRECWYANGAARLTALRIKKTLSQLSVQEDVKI
Method: as §1

ALK5 = molecular target: T4, ALK5 (Homo sapiens, UniProt P36897); test: TR-FRET enzymatic ALK kinase assay, ALK5
T4 sequence (P36897 34-503): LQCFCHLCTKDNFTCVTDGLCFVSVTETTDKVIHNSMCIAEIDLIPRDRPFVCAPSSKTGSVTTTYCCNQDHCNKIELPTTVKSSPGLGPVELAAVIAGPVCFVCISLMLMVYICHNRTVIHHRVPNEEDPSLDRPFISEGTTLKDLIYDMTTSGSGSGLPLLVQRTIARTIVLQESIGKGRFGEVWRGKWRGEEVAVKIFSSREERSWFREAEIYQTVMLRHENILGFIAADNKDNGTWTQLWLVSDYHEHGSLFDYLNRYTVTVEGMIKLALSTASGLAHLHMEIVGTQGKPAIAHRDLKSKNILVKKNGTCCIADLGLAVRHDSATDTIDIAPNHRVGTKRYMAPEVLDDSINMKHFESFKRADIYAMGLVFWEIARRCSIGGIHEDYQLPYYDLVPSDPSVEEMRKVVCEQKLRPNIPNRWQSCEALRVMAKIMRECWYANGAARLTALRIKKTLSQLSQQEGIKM
Method: Six ALK kinase enzyme assays were developed for determination of compound activities on ALK1, ALK2, ALK3, ALK4, ALK5 and ALK6.
as §1

ALK6 = ALK6 (Homo sapiens, UniProt O00238); test: TR-FRET enzymatic ALK kinase assay, ALK6
Method: as §1

[3] = HTRF assay, BMP6 as agonist, C2C12 cells, read-out: BMP6 HTRF
[4] = cell-based assay, BMP6, read-out: Cell IC50 BMP6

Sequence of ALK6 (O00238 14-502): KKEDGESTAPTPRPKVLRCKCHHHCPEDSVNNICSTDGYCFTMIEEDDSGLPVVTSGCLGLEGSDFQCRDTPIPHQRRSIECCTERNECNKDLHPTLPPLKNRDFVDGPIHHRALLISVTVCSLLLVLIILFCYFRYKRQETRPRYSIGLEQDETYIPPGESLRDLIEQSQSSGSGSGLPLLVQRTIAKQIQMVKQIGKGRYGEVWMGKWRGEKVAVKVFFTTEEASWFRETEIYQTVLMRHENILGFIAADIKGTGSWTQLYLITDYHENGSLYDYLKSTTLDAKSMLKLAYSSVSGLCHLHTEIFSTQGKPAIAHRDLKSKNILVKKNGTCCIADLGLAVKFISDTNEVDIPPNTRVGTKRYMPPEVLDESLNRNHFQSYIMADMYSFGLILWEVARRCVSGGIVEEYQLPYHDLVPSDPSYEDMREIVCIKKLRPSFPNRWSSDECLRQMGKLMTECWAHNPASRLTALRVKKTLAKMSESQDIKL
Sequence of ALK1 (P37023 22-503): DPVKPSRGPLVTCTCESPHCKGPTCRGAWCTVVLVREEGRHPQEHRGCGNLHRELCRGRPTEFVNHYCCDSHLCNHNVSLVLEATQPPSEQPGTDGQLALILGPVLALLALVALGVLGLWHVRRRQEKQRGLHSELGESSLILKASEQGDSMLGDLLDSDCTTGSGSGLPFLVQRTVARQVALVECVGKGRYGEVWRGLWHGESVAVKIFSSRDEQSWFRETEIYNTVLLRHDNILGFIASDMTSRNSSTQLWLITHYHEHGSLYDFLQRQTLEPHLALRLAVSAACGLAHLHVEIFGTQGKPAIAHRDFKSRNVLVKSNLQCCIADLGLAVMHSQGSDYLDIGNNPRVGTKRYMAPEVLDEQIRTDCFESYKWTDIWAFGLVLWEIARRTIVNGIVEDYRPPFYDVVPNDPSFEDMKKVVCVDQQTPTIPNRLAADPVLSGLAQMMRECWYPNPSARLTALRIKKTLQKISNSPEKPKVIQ
Sequence of ALK3 (P36894 24-532): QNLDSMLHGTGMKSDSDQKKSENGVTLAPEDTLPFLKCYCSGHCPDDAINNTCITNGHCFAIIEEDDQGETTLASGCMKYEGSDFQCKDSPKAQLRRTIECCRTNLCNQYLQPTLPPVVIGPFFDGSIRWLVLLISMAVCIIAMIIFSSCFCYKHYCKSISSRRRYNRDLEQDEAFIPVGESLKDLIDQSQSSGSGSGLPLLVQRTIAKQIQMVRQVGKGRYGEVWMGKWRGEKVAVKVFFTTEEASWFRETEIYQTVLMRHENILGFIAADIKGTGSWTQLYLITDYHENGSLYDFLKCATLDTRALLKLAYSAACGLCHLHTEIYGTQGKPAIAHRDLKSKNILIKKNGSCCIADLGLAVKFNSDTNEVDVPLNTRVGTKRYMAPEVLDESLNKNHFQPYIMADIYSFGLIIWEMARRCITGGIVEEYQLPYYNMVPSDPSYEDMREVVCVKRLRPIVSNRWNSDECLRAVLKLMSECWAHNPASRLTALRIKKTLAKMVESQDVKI

Row | IC50 (ALK2 [1]; [3]) [µM] | IC50 (ALK1) [µM] | IC50 (ALK2 [2]) [µM] | IC50 (ALK3) [µM] | IC50 (ALK4) [µM] | IC50 (ALK5) [µM] | IC50 (ALK6) [µM] | IC50 (ALK2 [1]; [4]) [µM] | SMILES
1 | 0.27 | 0.27 | 0.045 | 1.4 | > 10 | > 10 | > 10 |  | CS(=O)(=O)c1cccc(-c2cnn3cc(-c4ccc(OC5(CN6CCCCC6)CC5)cc4)cnc23)c1 [Compound 134, 3-(3-(methylsulfonyl)phenyl)-6-(4-(1-(piperidin-1-ylmethyl)cyclopropoxy)phenyl)pyrazolo[1,5-a]pyrimidine]
2 |  | 0.9 | 0.35 | > 10 | > 10 | > 10 | > 10 | 60 | NS(=O)(=O)c1ccc(-c2cnn3cc(-c4ccc(C5(O)CCNCC5)nc4)cnc23)c2ccccc12 [Compound 56, 4-(6-(6-(4-hydroxypiperidin-4-yl)pyridin-3-yl)pyrazolo[1,5-a]pyrimidin-3-yl)naphthalene-1-sulfonamide]
3 |  | 0.68 | 0.2 | > 10 | > 10 | > 10 | > 10 | 0.95 | CN(C)CCc1ccc(-c2cnc3c(-c4ccc(S(N)(=O)=O)c5ccccc45)cnn3c2)cc1 [Compound 68, 4-(6-(4-(2-(dimethylamino)ethyl)phenyl)pyrazolo[1,5-a]pyrimidin-3-yl)naphthalene-1-sulfonamide]
4 |  | > 10 | 5.1 | > 10 | > 10 | > 10 | > 10 | 22 | C[C@@H]1CNC[C@H](C)N1c1ccc(-c2cnc3c(-c4ccc(CS(N)(=O)=O)cc4)cnn3c2)cc1 [Compound 71, (4-(6-(4-((2R,6S)-2,6-dimethylpiperazin-1-yl)phenyl)pyrazolo[1,5-a]pyrimidin-3-yl)phenyl)methanesulfonamide]
5 |  | 0.69 | 0.35 | > 10 | > 10 | > 10 | > 10 | 0.836 | CS(=O)(=O)c1cccc(-c2cnn3cc(-c4ccc(C(F)(F)CN5CCOCC5)cc4)cnc23)c1 [Compound 121, 4-(2,2-difluoro-2-(4-(3-(3-(methylsulfonyl)phenyl)pyrazolo[1,5-a]pyrimidin-6-yl)phenyl)ethyl)morpholine]
6 |  | 2.9 | 0.38 | > 10 | > 10 | > 10 | > 10 | 0.316 | C[C@@H]1CNC[C@H](C)N1c1ccc(-c2cnc3c(-c4ccc([S+](N)(=O)[O-])c(C(F)(F)F)c4)cnn3c2)cc1 [Compound 53, 4-(6-(4-((2R,6S)-2,6-dimethylpiperazin-1-yl)phenyl)pyrazolo[1,5-a]pyrimidin-3-yl)-2-(trifluoromethyl)benzenesulfonamide]
7 | 0.45 | 0.59 | 0.054 | 1.3 | > 10 | > 10 | 5.6 |  | C[C@@H](O)c1cccc(-c2cnn3cc(-c4ccc(OC5(CN6CCCCC6)CC5)cc4)cnc23)c1 [Compound 152, (R)-1-(3-(6-(4-(1-(piperidin-1-ylmethyl)cyclopropoxy)phenyl)pyrazolo[1,5-a]pyrimidin-3-yl)phenyl)ethanol]
8 |  | 0.14 | 0.074 | > 10 | > 10 | > 10 | > 10 | 3 | CN1CCN(c2ccc(-c3cnc4c(-c5ccc(S(N)(=O)=O)c6ccccc56)cnn4c3)cc2)CC1 [Compound 62, 4-(6-(4-(4-methylpiperazin-1-yl)phenyl)pyrazolo[1,5-a]pyrimidin-3-yl)naphthalene-1-sulfonamide]
9 |  | 0.47 | 0.11 | > 10 | > 10 | > 10 | > 10 | 2.2 | CN(C)CCOc1ccc(-c2cnc3c(-c4ccc(S(N)(=O)=O)c5ccccc45)cnn3c2)cc1 [Compound 61, 4-(6-(4-(2-(dimethylamino)ethoxy)phenyl)pyrazolo[1,5-a]pyrimidin-3-yl)naphthalene-1-sulfonamide]
10 | 0.18 | 0.033 | 0.003 | 0.39 | 4.4 | 8.2 | 9.8 |  | CS(=O)(=O)c1cccc(-c2cnn3cc(-c4ccc(CN5CCCC5)cc4)cnc23)c1 [Compound 164, 3-(3-(methylsulfonyl)phenyl)-6-(4-(pyrrolidin-1-ylmethyl)phenyl)pyrazolo[1,5-a]pyrimidine]
11 | 0.37 | 0.6 | 0.049 | 1.1 | > 10 | > 10 | 9.3 |  | CC(O)c1cccc(-c2cnn3cc(-c4ccc(OC5(CN6CCCC6)CC5)cc4)cnc23)c1 (stereo not drawn) [Compound 167, 1-(3-(6-(4-(1-(pyrrolidin-1-ylmethyl)cyclopropoxy)phenyl)pyrazolo[1,5-a]pyrimidin-3-yl)phenyl)ethanol]
12 |  | 0.53 | 0.21 | > 10 | > 10 | > 10 | > 10 | 1.04 | CS(=O)(=O)c1cccc(-c2cnn3cc(-c4ccc(C(F)(F)CN5CCCC5)cc4)cnc23)c1 [Compound 119, 6-(4-(1,1-difluoro-2-(pyrrolidin-1-yl)ethyl)phenyl)-3-(3-(methylsulfonyl)phenyl)pyrazolo[1,5-a]pyrimidine]
